Data on 1 compound can be found in US8987473B2, “Ring-fused compound” (Sato Pharmaceutical Co., Ltd., priority 2011, dated 2015).

The target of the test is human URAT1 (Homo sapiens (Human), UniProt Q96S37). Kind of test: Test for uric acid transport inhibition using human URAT1 expression cell. The format is cell-based. Particulars: human URAT1 stable expression CHO cell; 14C-labeled uric acid 38 μM final concentration; incorporation at room temperature for 5 minutes; 100% window defined with benzbromarone 100 μM; read-out: URAT1 Inhibitory Activity (IC50). As to the method: In this Example, it was evaluated whether the Example compound has the URAT1 inhibitory activity.
Human URAT1 full-length cDNA was introduced to an expression vector pcDNA5/FRT/V5-His TOPO (registered trademark) (Invitrogen Corporation). The obtained expression plasmid was introduced to Chinese hamster ovary cell (hereinafter referred to as the CHO cell) by the liposome method using Lipofectamine LTX (Invitrogen), and cultured in a selection medium including hygromycin, whereby to prepare human URAT1 stable expression cell.
The human URAT1 expression CHO cell was cultured using D-MEM/F-12 (1:1) mixed medium including 10% bovine fetal serum and hygromycin at 37° C. in the presence of 5% CO2. The cells were seeded onto a 96 well plate (Corning Incorporated) in 0.8×10^5 cells/well, and after 24 hours, the test for uric acid transport inhibition below was performed.
The medium was removed by aspiration, and then the cells were washed once with an assay buffer including 125 mM of sodium gluconate, 4.8 mM of potassium gluconate, 1.2 mM of potassium dihydrogen phosphate, 1.2 mM of magnesium sulfate, 1.3 mM of calcium gluconate and 5.6 mM of glucose. 50 μL assay buffer including the test compound in various concentrations was added, and further 50 μL assay buffer including a radioactive ligand (uric acid labeled with ^14C; 38 μM final concentration) was added, and incorporation reaction was performed at room temperature for 5 minutes. Immediately after completion of the reaction, the reaction mixture was washed twice with 100 μL ice-cold assay buffer, and 100 μL of 0.1 N sodium hydroxide was added. The reaction mixture was stirred to lyse the cells, and 4 mL Hionic-Fluor (Packard BioScience CO) was added, and then the radioactivity was measured with a liquid scintillation counter (Beckman Coulter, Inc. and Packard BioScience CO).
The radioactivity when each concentration of the test compound was added (uric acid incorporation activity, %) was calculated in which the difference of the radioactivity when the test compound was not added (DMSO added), and the radioactivity when a positive control compound, benzbromarone (known URAT1 inhibitor) was added in 100 μM, was taken as 100%, and the concentration of the test compound when the uric acid incorporation activity was inhibited to 50% (IC50) was obtained.

Sequence of human URAT1 (Q96S37 whole entry): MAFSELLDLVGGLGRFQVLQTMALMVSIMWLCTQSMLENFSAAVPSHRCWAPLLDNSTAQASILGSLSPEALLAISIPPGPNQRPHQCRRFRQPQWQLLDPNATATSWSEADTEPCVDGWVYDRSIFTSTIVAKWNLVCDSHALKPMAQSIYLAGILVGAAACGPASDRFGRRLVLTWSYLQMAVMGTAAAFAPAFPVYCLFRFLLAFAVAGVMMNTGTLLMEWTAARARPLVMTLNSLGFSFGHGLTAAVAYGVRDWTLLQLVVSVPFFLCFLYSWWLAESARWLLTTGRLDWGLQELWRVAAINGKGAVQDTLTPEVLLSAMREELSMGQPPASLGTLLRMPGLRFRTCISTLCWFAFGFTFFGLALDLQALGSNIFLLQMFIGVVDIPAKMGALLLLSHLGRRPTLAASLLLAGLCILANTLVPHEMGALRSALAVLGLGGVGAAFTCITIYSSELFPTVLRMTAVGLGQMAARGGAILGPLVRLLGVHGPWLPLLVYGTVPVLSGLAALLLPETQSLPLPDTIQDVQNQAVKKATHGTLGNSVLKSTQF

On to `Cc1cccc(C)c1Cn1c(=O)n(C(C)C)c2ccc(C(=O)O)cc21` [Example 186, 3-(2,6-dimethylbenzyl)-1-isopropyl-2-oxo-2,3-dihydro-1H-benzimidazole-5-carboxylic acid], for which the half-maximal inhibitory concentration (IC50) amounted to 165 nM.
